Assay results published in patent publication US20180327367A1, “MACROCYCLIC BROAD SPECTRUM ANTIBIOTICS” (priority 2015, published 2018).
Converted amounts (≈) assume the structure as drawn. Where two headings read alike, the source gives them in different places.

What was measured:
[1] = tested on: Methicillin Resistant Staphylococcus aureus strain USA 300, NRS384; test: Minimum inhibitory concentration, broth micro-dilution (CLSI), S. aureus; format: cell-based; settings: Staphylococcus aureus, MRSA / NRS 384 / USA300, 22 h, 35° C., 22 hours
Method in brief: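 Colonies grown 20 hours at 35° C were suspended in cation-adjusted Mueller Hinton Broth with 0.002% Tween-80. Cells were then added to 2-fold compound dilutions starting at 4 or 0.5 μg/mL, at OD600 0.0005.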

[2] = tested on: Escherichia coli MC4100 harboring the IMP4213 (E. coli IMP); test: microbe, parasite or virus in culture; format: cell-based; settings: Escherichia coli, 22 h, read-out: MIC (μg/mL) E. coli IMP, E. coli MC4100 IMP4213, increased outer-membrane permeability; 35° C., 22 hours
Method in brief: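 Broth micro-dilution per CLSI in cation-adjusted Mueller Hinton Broth with 0.002% Tween-80; E. coli MC4100 carries IMP4213, raising outer-membrane permeability. Compounds tested as 2-fold serial dilutions (10 concentrations) from 4 μg/mL (protocol 2) or 0.5 μg/mL (protocol 3); inoculum OD600 0.0005, 35° C for 22 hours.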

[3] = tested on: Escherichia coli ATCC 25922; test: Minimum inhibitory concentration, broth micro-dilution (CLSI), E. coli; format: cell-based; settings: Escherichia coli, ATCC25922, 22 h, 35° C., 22 hours
[4] = molecular target: T1, SpsB (Staphylococcus aureus signal peptidase) (Staphylococcus aureus, UniProt P0A070); test: cell-based; format: biochemical; settings: SpsB IC50, whole-cell S. aureus (USA300 background, overexpressing SpsB) as SpsB source; fluorogenic peptide substrate, kinetic read 30 min
T1 construct: This assay uses a suspension of Staphylococcus aureus cells as a source of SpsB instead of recombinant SpsB protein; endogenous in cells; host or cells: S. aureus, USA300 background, overexpressing SpsB (whole-cell suspension from frozen pellets)
T1 sequence (P0A070 whole entry): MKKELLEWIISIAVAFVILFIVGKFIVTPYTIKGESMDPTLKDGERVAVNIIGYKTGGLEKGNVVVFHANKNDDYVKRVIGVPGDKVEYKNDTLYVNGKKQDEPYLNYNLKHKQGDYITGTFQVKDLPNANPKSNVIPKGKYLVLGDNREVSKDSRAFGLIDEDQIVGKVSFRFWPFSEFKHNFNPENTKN
Method in brief: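 Whole S. aureus cells (USA300, overexpressing SpsB) in PBS with MgCl2, CaCl2 and 0.1% Tween-80 served as enzyme source, mixed with 20 μM stock of (Dabcyl)βAla-KPAKAAE(Edans) substrate before use. Fluorescence (ex 340/em 490 nm) read kinetically over 30 min. IC50 from reaction rate versus 11-point inhibitor concentration.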

[5] = MRSA USA 300 NRS384, read-out: MIC (μg/mL) S. aureus
[6] = E. coli ATCC 25922, read-out: MIC (μg/mL) E. coli
[7] = read-out: MIC (μg/mL) S. aureus, MRSA USA 300 NRS384
[8] = read-out: MIC (μg/mL) E. coli, E. coli ATCC 25922

SMILES	MIC [1, 5] [µg/mL]	MIC [2] [µg/mL]	MIC [3, 6] [µg/mL]	IC50 [4] [nM]	MIC [1, 7] [µg/mL]	MIC [3, 8] [µg/mL]
CCCCCCCCCCCC(=O)N[C@@H](CCn1cncn1)C(=O)N(C)[C@@H]1C(=O)N[C@@H](C)C(=O)N[C@H](C(=O)NCC#N)Cc2ccc(OCCN)c(c2)-c2cc1ccc2OCCN [Compound 454]	0.13 (≈ 0.149 µM)	0.13 (≈ 0.149 µM)	32 (≈ 36.7 µM)	1.8		
Cc1nc(-c2ccc(C(C)C)cc2)ncc1C(=O)N[C@@H](CCN)C(=O)N(C)[C@@H]1C(=O)N[C@@H](C)C(=O)N[C@H](C(=O)NCC#N)Cc2ccc(OCCN)c(c2)-c2cc1ccc2OCCN [Compound 160]	0.047 (≈ 0.0537 µM)	0.0039 (≈ 0.00445 µM)	0.13 (≈ 0.148 µM)	0.66		
CCCCCCCOc1ccc(C(=O)N[C@@H](CCCN)C(=O)N(C)[C@@H]2C(=O)N[C@@H](C)C(=O)N[C@H](C(=O)NCC#N)Cc3ccc(OCCN)c(c3)-c3cc2ccc3OCCN)c(Cl)c1 [Compound 282]	0.016 (≈ 0.0177 µM)	0.0078 (≈ 0.00862 µM)	0.25 (≈ 0.276 µM)	0.71		
C[C@@H]1NC(=O)[C@@H](N(C)C(=O)[C@H](CCCCN)NC(=O)c2ccc(-c3ccc(Cl)cc3)cc2)c2ccc(OCCN)c(c2)-c2cc(ccc2OCCN)C[C@@H](C(=O)NCC#N)NC1=O [Compound 482]		0.13 (≈ 0.148 µM)		1.6	0.13 (≈ 0.148 µM)	16 (≈ 18.2 µM)
CCCCCCCCCCCC(=O)N[C@@H](CCN)C(=O)N(C)[C@@H]1C(=O)N[C@@H](C)C(=O)N[C@H](C(=O)NCC#N)Cc2ccc(OCCN)c(c2)-c2cc1ccc2OCCN [Compound 103]	0.023 (≈ 0.028 µM)	0.0078 (≈ 0.00951 µM)	1 (≈ 1.22 µM)	0.57		
CCCC(C)(C)COc1ccc(C(=O)N[C@@H](CCN)C(=O)N(C)[C@@H]2C(=O)N[C@@H](C)C(=O)N[C@H](C(=O)NCC#N)Cc3ccc(OCCN)c(c3)-c3cc2ccc3OCCN)c(C)c1 [Compound 288]	0.063 (≈ 0.0724 µM)	0.0078 (≈ 0.00896 µM)	0.25 (≈ 0.287 µM)	1.1		
C[C@@H]1NC(=O)[C@@H](N(C)C(=O)[C@H](CCN)NC(=O)c2ccc(C#Cc3ccccc3)cc2Cl)c2ccc(OCCN)c(c2)-c2cc(ccc2OCCN)C[C@@H](C(=O)NCC#N)NC1=O [Compound 424]		0.016 (≈ 0.0183 µM)		0.75	0.063 (≈ 0.0719 µM)	0.56 (≈ 0.639 µM)
CCCCCCCCc1ccc(C)c(C(=O)N[C@@H](CCCCN)C(=O)N(C)[C@@H]2C(=O)N[C@@H](C)C(=O)N[C@H](C(=O)NCC#N)Cc3ccc(OCCN)c(c3)-c3cc2ccc3OCCN)c1 [Compound 422]	0.063 (≈ 0.0703 µM)	0.031 (≈ 0.0346 µM)	1.5 (≈ 1.67 µM)	1.1		
Cc1cc(OCCC(C)C)ccc1C(=O)N[C@@H](CCN)C(=O)N(C)[C@@H]1C(=O)N[C@@H](C)C(=O)N[C@H](C(=O)NCC#N)Cc2ccc(OCCN)c(c2)-c2cc1ccc2OCCN [Compound 274]	0.13 (≈ 0.154 µM)	0.02 (≈ 0.0238 µM)	1.3 (≈ 1.54 µM)	0.79		
CCCCCCCCCC(=O)NCCC(=O)N(C)[C@@H]1C(=O)N[C@@H](C)C(=O)N[C@H](C(=O)NCC#N)Cc2ccc(OCCN)c(c2)-c2cc1ccc2OCCN [Compound 464]	1 (≈ 1.31 µM)	> 4	> 64	6		
CCC/C=C\c1ccc(C(=O)N[C@@H](CCN)C(=O)N(C)[C@@H]2C(=O)N[C@@H](C)C(=O)N[C@H](C(=O)NCC#N)Cc3ccc(OCCN)c(c3)-c3cc2ccc3OCCN)c(C)c1 [Compound 308]	0.063 (≈ 0.0765 µM)	0.016 (≈ 0.0194 µM)	1 (≈ 1.21 µM)	0.71		
CCCCCOc1ccc(C(=O)N[C@@H](CCN)C(=O)N(C)[C@@H]2C(=O)N[C@@H](C)C(=O)N[C@H](C(=O)NCC#N)Cc3ccc(OCCN)c(c3)-c3cc2ccc3OCCN)c(Cl)c1 [Compound 270]	0.094 (≈ 0.109 µM)	0.016 (≈ 0.0186 µM)	0.63 (≈ 0.73 µM)	0.89		
CCCCCCCCC(O)C(=O)NC(CO)C(=O)N(C)C1C(=O)NC(C)C(=O)NC(C(=O)NCC#N)Cc2ccc(OCCN)c(c2)-c2cc1ccc2OCCN (single isomer, unassigned) [Compound 393-P1]		1 (≈ 1.26 µM)		5.9	2 (≈ 2.52 µM)	> 64
